Results from patent US11203773B2, “Designer ribosomes and methods of use thereof for incorporating non-standard amino acids into polypeptides” (Yale University, priority 2016, dated 2021).
Like-named read-outs stand apart in the source and are kept apart here.

Legend:
[1] = system: E. coli strains (BL21 (DE3)) with pUC18 rrnb plasmids; assay: Screen of library for sensitivity to erythromycin (growth inhibition, OD600); type: cell-based; conditions: 6.8 μM erythromycin, E. coli with pUC18 plasmid encoding WT rrnb, 16-18 h
Protocol: (§3) To screen the resulting E. coli strains for antibiotic resistance, 2 μL of the 15% glycerol stocks prepared above were added to 98 μL of growth assay buffer (LB media (pH 8.35), 100 μg/mL carbenicillin, 1.0 mM IPTG, 6.8 μM erythromycin) in 384-well plates (Corning #3707). […] After 16-18 h, the extent of cell growth inhibition in the presence of antibiotic was determined by measuring the OD600 of each well using a SpectraMax M5 plate reader (Molecular Devices). The antibiotic-dependent inhibition of cell growth in each well was determined using Equation 4: [100−(OD600+A/OD600−A)×100] Equation 4 In this equation, OD600+A represents OD600 of wells containing antibiotic and OD600−A represents OD600 of wells lacking antibiotic.

[2] = molecular target: T1, E. coli GlyRS (Escherichia coli, UniProt P00960); conditions: for krev (apparent rate of deacylation): deacylation of aminoacyl-tRNA, GlyRS 2 μM, 25° C.
Protocol: (§4) Deacylation assays. Large scale (200 μL) aminoacylation reactions were initiated using the conditions described above (iv). The reactions were allowed to proceed for 1 h at 37° C., after which each reaction mixture was phenol/chloroform extracted. In each case, the aminoacylated tRNA product was ethanol precipitated, and the buffer was exchanged using a micro Bio-Spin 6 column (BioRad) following the procedure specified by the manufacturer and 100 mM HEPES (pH 8.0) containing 100 mM KCl. The precise extent of aminoacylation was calculated using the procedure described above; the 2 μM concentration corresponds to total aminoacylated tRNA. Assays were performed at 25° C. in a 50 μL reaction with 2 μM [^32P]-aminoacyl-tRNA in 100 mM HEPES (pH 7.0) containing 100 mM KCl and 15 mM MgCl2.

[3] = molecular target: T1, E. coli GlyRS; conditions: aminoacylation; for kcat: 2 μM tRNA
[4] = molecular target: T1, E. coli GlyRS; conditions: adenylation; for kcat (min^−1) or RSA (^32P-ATP formed min^−1 enzyme μM^−1): 25° C., pH 7.0
Protocol: (§5) Adenylation of α- and β-Amino Acids Catalyzed by E. coli PheRS, GlyRS, MetRS, and GluRS. […] Briefly, assay mixtures (50 μL) assembled at 25° C. contained the requisite α- or β^3-amino acid substrate (between 5 μM and 5 mM) in 100 mM HEPES (pH 7.0) containing 100 mM KCl, 15 mM MgCl2, 2 mM ATP, 0.5 mM NaPPi, and 50 μCi [^32P]-NaPPi). Reactions were initiated upon addition of enzyme (10 nM MetRS, 10 nM PheRS, or 50 nM GlyRS; 100 nM GluRS for reactions with α-Glu or 1.13 μM GluRS for reactions with β^3-Glu), incubated for various times (10 sec to 10 min), and halted by adding a 5 μL reaction aliquot to 100 μL quenching solution (10% charcoal, 0.5% HCl). 50 μL of 200 mM NaPPi in 1.5 N HCl was then added to each quenched reaction to decrease nonspecific binding of pyrophosphate to the charcoal. Each quenched reaction was then filtered through Whatman filter paper (number 3), previously washed with washing solution (200 mM NaPPi in 1 N HCl) using a 96-well BIO-DOT® apparatus (BioRad). Each well of the apparatus was then washed four times with 200 μL aliquots of washing solution (by pipetting washing solution up and down at least 10 times per wash) to minimize nonspecific binding of pyrophosphate to charcoal. Each experimental well was paired with an analogous control well (no-enzyme control) that lacked enzyme; a single membrane contained time points for both α- and β^3-amino acid substrates and all no-enzyme controls. The membrane was allowed to dry and was protected with a sheet of Microseal B adhesive seals (Biorad) prior to exposure to a BAS Storage Phosphor screen. Screens were imaged on a Typhoon 9500FLA biomolecule imager and the signal intensity of each dot was quantified using ImageJ to determine the relative amount of [^32P]-ATP formed as a function of time (Ctime). Each raw value were corrected by subtracting the intensity of the dot corresponding to the appropriate no-enzyme control (Cblank) and the resulting corrected values of Ccorr (representing the relative amounts of ^32P-ATP formed) were plotted as a function of time to determine values of relative ^32P-ATP formed per minute. Those values were divided by the concentration of enzyme used, and the data was plotted as relative specific activity (^32P-ATP formed min^−1×μM^−1 enzyme) and fitted using Prism by performing nonlinear regression using the least squares method and Equation 1 to obtain RSA (relative specific activity) and KM values (Equation 1 and Table 2).
(§6) In Equation 1, v is the apparent relative specific activity (relative ^32P-ATP formed per minute) obtained at each substrate concentration divided by the enzyme concentration, RSA is the relative specific activity, S is the concentration of substrate, and KM is the Michaelis-Menten constant.

[5] = molecular target: T2, E. coli PheRS (Escherichia coli, UniProt P08312); assay: Aminoacylation of 32P-tRNA with α- and β3-amino acids; type: biochemical; parameters: made in house; host or cells: E. coli BL21(DE3)
[6] = system: BL21(DE3) cells expressing only WT ribosomes; assay: Expression of DHFR in 19/20 minimal media supplemented with amino acid (SDS-PAGE); type: cell-based, E. coli
Source text: (§1) To evaluate the extent of in vivo β^3-amino acid incorporation, BL21 (DE3) cells were co-transformed via electroporation (vide infra) with two plasmids. […] The other plasmid encoded either the WT rrnb sequence (pLK35-rrnb), the 040329 mutant reported by Hecht (pLK35-040329.rrnb), or the P7A7 mutant (pLK35-P7A7.rrnb) identified during the puromycin sensitivity screen described above.
(§2) ii. β^3-amino acid incorporation. The subsequent protocol for in vivo β^3-amino acid incorporation employed minimal media and was adapted from procedures reported by Tirrell and Cropp (Liu, et al., Bioorg Med Chem Lett, 20:5613 (2010); Mandavi, et al., J Am Chem Soc, 135:2979 (2013)). Briefly, all 5 mL of the co-transformed cells prepared as described above were diluted into 100 mL of LB containing 50 ng/mL of kanamycin and […] of carbenicillin and grown to OD600=1.0, spun down, and then resuspended in 1/10th the original volume of 19/20 minimal media (10.5 g/L M9 salts, 0.1 mM CaCl2, 1 mM MgSO4, 1% glycerol, 100 μM of each amino acid (minus α-Phe), 25 mg/L thiamine, […] carbenicillin, 30 ng/mL kanamycin, 1 mM IPTG) supplemented with 1 mM of α-Phe or a β^3-Phe analog. Cells were grown overnight (18 h) at 37° C. while shaking (200 rpm). The cells were harvested by centrifugation (10 min at 4000×g) and resuspended in lysis buffer (50 mM NaH2PO4, 300 mM NaCl, 10 mM imidazole (pH 8.0)). Lysis was performed by sonication (Branson Sonifier 250) with 5 cycles of 20 s on, 20 s off. Lysed cells were then centrifuged for 20 min at 15000×g. The clarified cell lysate was incubated with Ni-NTA resin (Qiagen) for 1 h while gently rotating at 4° C. The Ni-NTA column was washed with lysis buffer prior to eluting proteins with elution buffer (50 mM NaH2PO4, 300 mM NaCl, 300 mM imidazole (pH 8.0)). Elutions were analyzed with SDS-PAGE to prepare material for in-gel trypsin digestions. Controls included side-by-side growths in (1) unsupplemented 19/20 minimal media, which contains only low levels of α-Phe present (negative control); (2). 19/20 minimal media supplemented with 1 mM α-Phe (positive control) and (3) and 19/20 minimal media supplemented with 1 mM β^3-Gly (negative control; β^3-aa that is not a β^3-Phe analog).

[7] = system: BL21(DE3) cells expressing P7A7 ribosomes along with WT ribosomes; assay: as above; type: cell-based, E. coli; conditions: media supplemented with 1 mM of the amino acid
Source text: as §1, §2

[8] = system: BL21(DE3) cells expressing 040329 ribosomes along with WT ribosomes; assay: as above; type: cell-based, E. coli; conditions: 040329 + WT ribosomes, media supplemented with 1 mM of the amino acid
Source text: as §1, §2

[9] = molecular target: T2, E. coli PheRS; assay: Adenylation of α- and β3-amino acids, pyrophosphate exchange assay
Protocol: as §5, §6

[10] = molecular target: T2, E. coli PheRS; assay: Deacylation assay of [32P]-aminoacyl-tRNA; type: biochemical; parameters: made in house; host or cells: E. coli BL21(DE3)
Protocol: as §4

[11] = system: DHFR position 128 translated in E. coli BL21 (DE3); assay: Spectral counting (LC-MS/MS of tryptic peptides) of β3-(p-Br)Phe and α-Phe incorporation into DHFR in vivo; type: cell-based; conditions: cells expressing 040329 ribosomes
Source text: as §1
as §2, with “19/20 minimal media supplemented with 1 mM α-Phe (positive control) and (3) and 19/20 minimal media supplemented with 1 mM β^3-Gly (negative control; β^3-aa that is not a β^3-Phe analog).” left out

[12] = system: E. coli strains (BL21 (DE3)) with pUC18 rrnb plasmids; assay: Screen of erythromycin-resistant library for sensitivity to β3-puromycin (growth inhibition, OD600); type: cell-based; conditions: 250 μM β^3-puromycin, E. coli with pUC18 plasmid encoding WT rrnb
Protocol: as §3
The 1986 erythromycin-resistant clones identified above were then screened for sensitivity to β^3-puromycin sensitivity as described above, except that 250 μM β^3-puromycin was substituted for erythromycin.

T1 sequence (P00960 whole entry): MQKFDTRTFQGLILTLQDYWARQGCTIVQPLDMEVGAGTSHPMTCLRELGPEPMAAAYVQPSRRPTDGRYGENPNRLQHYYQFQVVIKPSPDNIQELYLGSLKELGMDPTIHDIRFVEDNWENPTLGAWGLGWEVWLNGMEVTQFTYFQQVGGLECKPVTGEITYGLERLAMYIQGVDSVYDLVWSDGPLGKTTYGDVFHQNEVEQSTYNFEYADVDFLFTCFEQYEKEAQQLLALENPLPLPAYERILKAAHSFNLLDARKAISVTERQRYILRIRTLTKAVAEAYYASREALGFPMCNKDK
T1 sequence (P00961 whole entry, further chain): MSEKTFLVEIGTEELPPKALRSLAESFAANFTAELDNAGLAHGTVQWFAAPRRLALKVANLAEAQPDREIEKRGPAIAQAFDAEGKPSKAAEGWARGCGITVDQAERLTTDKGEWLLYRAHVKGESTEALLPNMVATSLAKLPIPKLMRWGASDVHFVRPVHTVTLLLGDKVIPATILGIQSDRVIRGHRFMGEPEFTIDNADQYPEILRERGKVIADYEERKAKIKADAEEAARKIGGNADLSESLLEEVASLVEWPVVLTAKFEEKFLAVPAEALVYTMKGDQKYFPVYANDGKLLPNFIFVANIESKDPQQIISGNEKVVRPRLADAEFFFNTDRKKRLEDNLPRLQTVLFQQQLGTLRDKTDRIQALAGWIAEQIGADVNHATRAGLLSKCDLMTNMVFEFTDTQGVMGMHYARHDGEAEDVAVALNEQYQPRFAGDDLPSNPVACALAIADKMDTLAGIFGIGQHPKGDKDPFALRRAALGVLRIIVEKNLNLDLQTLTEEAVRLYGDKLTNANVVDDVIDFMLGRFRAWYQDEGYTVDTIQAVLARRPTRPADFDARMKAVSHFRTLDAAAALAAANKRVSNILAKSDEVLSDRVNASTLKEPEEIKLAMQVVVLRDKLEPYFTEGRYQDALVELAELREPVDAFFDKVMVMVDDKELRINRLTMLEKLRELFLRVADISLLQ
T2 sequence (P08312 whole entry): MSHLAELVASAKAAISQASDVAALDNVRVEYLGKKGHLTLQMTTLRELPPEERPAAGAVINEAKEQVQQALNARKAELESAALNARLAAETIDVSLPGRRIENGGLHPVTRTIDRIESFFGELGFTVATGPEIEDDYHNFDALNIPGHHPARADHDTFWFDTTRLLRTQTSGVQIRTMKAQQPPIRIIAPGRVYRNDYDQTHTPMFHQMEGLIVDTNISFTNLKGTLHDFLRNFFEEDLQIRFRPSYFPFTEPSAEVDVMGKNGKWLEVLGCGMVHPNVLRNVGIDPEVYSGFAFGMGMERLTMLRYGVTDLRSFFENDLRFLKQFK
T2 sequence (P07395 whole entry partner): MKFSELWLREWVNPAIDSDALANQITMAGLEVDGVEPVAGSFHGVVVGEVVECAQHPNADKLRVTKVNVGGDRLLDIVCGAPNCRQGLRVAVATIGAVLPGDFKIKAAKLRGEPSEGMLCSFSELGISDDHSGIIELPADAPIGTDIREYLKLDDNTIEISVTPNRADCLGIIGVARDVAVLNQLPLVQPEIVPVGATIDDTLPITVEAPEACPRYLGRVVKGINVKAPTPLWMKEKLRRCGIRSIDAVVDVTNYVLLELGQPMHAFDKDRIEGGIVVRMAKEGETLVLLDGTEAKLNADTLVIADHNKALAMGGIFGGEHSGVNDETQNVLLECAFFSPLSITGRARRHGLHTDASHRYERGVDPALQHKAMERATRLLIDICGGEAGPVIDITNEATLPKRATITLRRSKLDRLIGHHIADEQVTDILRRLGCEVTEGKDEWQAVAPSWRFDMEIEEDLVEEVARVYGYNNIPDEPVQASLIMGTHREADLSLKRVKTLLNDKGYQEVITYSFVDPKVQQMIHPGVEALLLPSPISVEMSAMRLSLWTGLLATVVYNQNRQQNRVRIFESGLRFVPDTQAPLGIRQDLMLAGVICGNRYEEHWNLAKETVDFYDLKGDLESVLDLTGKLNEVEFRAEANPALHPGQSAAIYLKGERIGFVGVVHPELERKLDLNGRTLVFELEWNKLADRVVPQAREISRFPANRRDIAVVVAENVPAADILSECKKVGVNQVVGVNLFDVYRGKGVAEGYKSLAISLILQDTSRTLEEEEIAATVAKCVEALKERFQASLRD

CC[C@H]1OC(=O)[C@H](C)[C@@H](O[C@H]2C[C@@](C)(OC)[C@@H](O)[C@H](C)O2)[C@H](C)[C@@H](O[C@@H]2O[C@H](C)C[C@H](N(C)C)[C@H]2O)[C@](C)(O)C[C@@H](C)C(=O)[C@H](C)[C@@H](O)[C@]1(C)O [erythromycin]
growth inhibition [1]: full growth inhibition

NCC(=O)O [α-Gly, Glycine]
krev (apparent rate of deacylation) [2]: 0.21 ± 0.08 min⁻¹
Ratio (α/β) of krev ([2]; deacylation, GlyRS): 0.3 ± 0.1
Km [3]: 13.4 ± 4.7 µM
Ratio (α/β) of KM [3]: 1.2 ± 1.00
Ratio (α/β) of kcat [3]: 1.9 ± 1.0
Ratio (α/β) of kcat/KM [3]: 1.5 ± 0.7
kcat [3]: 0.0967 ± 0.0083 s⁻¹
Km [4]: 9.8 ± 3.5 µM
Ratio (α-/β-) of KM [4]: 0.14 ± 0.11
Ratio (α-/β-) of RSA [4]: 1.14 ± 0.24
Ratio (α-/β-) of kcat/KM [4]: 7.97 ± 6.46
kcat (min^−1) or RSA (^32P-ATP formed min^−1 enzyme μM^−1) [4]: 166.8 ± 12.8 ^32P-ATP formed min^−1 enzyme μM^−1

N[C@@H](Cc1ccccc1)C(=O)O [α-Phe, Phenylalanine]
Ratio (α/β) of KM [5]: 1.7 ± 0.9
Ratio (α/β) of kcat [5]: 3.7 ± 0.7
Ratio (α/β) of kcat/KM [5]: 2.2 ± 1.3
kcat ([5]; 2 μM tRNA): 0.0143 ± 0.00183 s⁻¹
level of DHFR, higher than trace amounts ([6]; α-Phe added): approximately 8 fold
level of DHFR [7]: lower levels
level of DHFR [8]: significant levels
Ratio (α-/β-) of KM [9]: 0.18 ± 0.11
Ratio (α-/β-) of RSA [9]: 1.4 ± 0.3
Ratio (α-/β-) of kcat/KM [9]: 8.06 ± 5.63
kcat (min^−1) or RSA (^32P-ATP formed min^−1 enzyme μM^−1) ([9]; RSA, 25° C., pH 7.0): 59.1 ± 7.1 ^32P-ATP formed min^−1 enzyme μM^−1
krev (apparent rate of deacylation) ([10]; deacylation of aminoacyl-tRNA, PheRS 500 nM, 25° C.): 0.15 ± 0.008 min⁻¹
Ratio (α/β) of krev ([10]; deacylation, PheRS): 0.49 ± 0.05

NCCC(=O)O [β-Gly, β^3-glycine]
amount of DHFR generated ([6]; 19/20 minimal media supplemented with 1 mM of the amino acid): trace amounts
level of DHFR [7]: lower levels
level of DHFR [8]: significant levels
krev (apparent rate of deacylation) [2]: 0.71 ± 0.09 min⁻¹
incorporation at position 128 of DHFR (LC-MS/MS) [11]: no evidence
Km [3]: 11.1 ± 2.8 µM
kcat [3]: 0.0517 ± 0.0017 s⁻¹
Km [4]: 68.4 ± 47.3 µM
kcat (min^−1) or RSA (^32P-ATP formed min^−1 enzyme μM^−1) [4]: 146.4 ± 29.2 ^32P-ATP formed min^−1 enzyme μM^−1

COc1ccc(CC(N)CC(=O)NC2C(CO)OC(n3cnc4c(N(C)C)ncnc43)C2O)cc1 (stereo not drawn) [β^3-puromycin]
growth inhibition [12]: lack of growth inhibition
